In patent publication US7981893B2, “Heteroaryl compounds, compositions thereof, and methods of treatment therewith” (Signal Pharmaceuticals, LLC, priority 2006, dated 2011):
One block for each compound: values may come before it.

What was measured:
[1] = biological target: T1, PKCθ (Homo sapiens, UniProt Q04759); assay: PKCθ IMAP Assay; assay type: biochemical; details: IMAP fluorescence polarization screening assay, 35 μM ATP
T1 construct: purchased Invitrogen
Description: The following is an example of an assay that can be used to determine the PKCθ inhibitory activity of a test compound. Reagents are prepared as follows:
Assay Buffer: 50 mM HEPES (pH 7.6), 10 mM MgCl, 0.1 mM EDTA, 5 mM MBP, 0.01% Triton, 1 mM DTT, 0.05 mg/ml phosphatidyl serine, 0.05 mg/ml diacylglycerol.
The final concentration of PKCθ (Invitrogen) is 0.5 nM. The final concentration of substrate (FAM-AKRRRLSSLRA) (Molecular Devices) is 100 nM. The final concentration of ATP in the reaction is 35 μM. The final concentration of DMSO in the reaction is 2.5%.
Enzyme is kept in 5 μl aliquots and stored at −80° C. prior to use. Test compound is allowed to pre-incubate with enzyme for 45 minutes before the reactions is initiated.
The reaction mixture consists of: 5 μl of test compound in 10% DMSO, 5 μl of 400 nM substrate (FAM-AKRRRLSSLRA), 5 μl of […] PKCθ, and 5 μl of 140 μM ATP (ATP is added to the reaction mixture last to initiate the reaction) per well.
The reaction is allowed to proceed for 60 minutes and is terminated by adding 30 μl per well of 90% Progressive A buffer/10% Progressive B buffer and a 1:400 dilution of binding beeds (Molecular Devices).
The reaction is given a binding incubation time of at least 30 minutes prior to reading the fluorescence polarization signal on an Analyst reader (the following detector settings are used: fluorescein excitation-485 nm, fluorescein emission-530 nm, fluorescein dichroic-505 nm).

T1 sequence (Q04759 whole entry): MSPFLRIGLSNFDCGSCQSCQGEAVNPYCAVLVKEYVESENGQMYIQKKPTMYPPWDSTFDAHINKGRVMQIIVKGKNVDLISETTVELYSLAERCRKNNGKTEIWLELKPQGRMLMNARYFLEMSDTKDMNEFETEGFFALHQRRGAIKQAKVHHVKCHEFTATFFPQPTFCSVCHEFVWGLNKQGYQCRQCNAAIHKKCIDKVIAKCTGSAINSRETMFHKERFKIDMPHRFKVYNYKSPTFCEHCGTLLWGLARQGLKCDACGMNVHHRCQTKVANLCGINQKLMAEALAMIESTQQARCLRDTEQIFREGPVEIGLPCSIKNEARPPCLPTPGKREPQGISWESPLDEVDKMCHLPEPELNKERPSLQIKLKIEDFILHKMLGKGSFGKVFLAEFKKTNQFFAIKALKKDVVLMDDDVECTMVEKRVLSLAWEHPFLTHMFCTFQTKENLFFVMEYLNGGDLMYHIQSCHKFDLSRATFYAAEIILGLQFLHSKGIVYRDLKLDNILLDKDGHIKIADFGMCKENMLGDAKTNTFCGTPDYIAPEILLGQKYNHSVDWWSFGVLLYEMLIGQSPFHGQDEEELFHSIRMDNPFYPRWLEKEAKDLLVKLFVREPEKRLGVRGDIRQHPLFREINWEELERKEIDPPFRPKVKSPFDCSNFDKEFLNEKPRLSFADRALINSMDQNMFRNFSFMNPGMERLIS

SMILES: COc1ccc(C(C)C)cc1-c1cnc2[nH]c(=O)n([C@H]3CCOC3)c2n1 [Compound 29, (S)-6-(5-isopropyl-2-methoxyphenyl)-1-(tetrahydrofuran-3-yl)-1H-imidazo[4,5-b]pyrazin-2(3H)-one]
IC50 [1]: > 30 µM

SMILES: COc1ccc(C(C)C)cc1-c1cnc2[nH]c(=O)n(C3CCCC3)c2n1 [Compound 31, 1-cyclopentyl-6-(5-isopropyl-2-methoxyphenyl)-1H-imidazo[4,5-b]pyrazin-2(3H)-one]
IC50 [1]: > 30 µM

SMILES: COc1ccc(C(C)C)cc1-c1cnc2[nH]c(=O)n(CC3CC3)c2n1 [Compound 33, 1-(cyclopropylmethyl)-6-(5-isopropyl-2-methoxyphenyl)-1H-imidazo[4,5-b]pyrazin-2(3H)-one]
IC50 [1]: > 30 µM

SMILES: COc1ccc(C(C)C)cc1-c1cnc2[nH]c(=O)n(CC3CCCC3)c2n1 [Compound 34, 1-(cyclopentylmethyl)-6-(5-isopropyl-2-methoxyphenyl)-1H-imidazo[4,5-b]pyrazin-2(3H)-one]
IC50 [1]: > 30 µM

SMILES: COc1ccc(C(C)C)cc1-c1cnc2[nH]c(=O)n(CC3CCCCC3)c2n1 [Compound 35, 1-(cyclohexylmethyl)-6-(5-isopropyl-2-methoxyphenyl)-1H-imidazo[4,5-b]pyrazin-2(3H)-one]
IC50 [1]: > 30 µM

SMILES: COc1ccc(C(C)C)cc1-c1cnc2[nH]c(=O)n(CC(C)(C)C)c2n1 [Compound 36, 6-(5-isopropyl-2-methoxyphenyl)-1-neopentyl-1H-imidazo[4,5-b]pyrazin-2(3H)-one]
IC50 [1]: > 30 µM

SMILES: CC(C)c1cccc(-c2cnc3[nH]c(=O)n(C(C)C)c3n2)c1 [Compound 37, 1-isopropyl-6-(3-isopropylphenyl)-1H-imidazo[4,5-b]pyrazin-2(3H)-one]
IC50 [1]: > 30 µM

SMILES: COc1ccccc1-c1cnc2[nH]c(=O)n(C(C)C)c2n1 [Compound 38, 1-isopropyl-6-(2-methoxyphenyl)-1H-imidazo[4,5-b]pyrazin-2(3H)-one]
IC50 [1]: > 30 µM

SMILES: COc1ccc(C(C)C)cc1-c1ccc2[nH]c(=O)n([C@H](CO)C(C)C)c2n1 [Compound 39, (S)-3-(1-hydroxy-3-methylbutan-2-yl)-5-(5-isopropyl-2-methoxyphenyl)-1H-imidazo[4,5-b]pyridin-2(3H)-one]
IC50 [1]: > 30 µM

SMILES: O=c1[nH]c2ncc(-c3cccc4ncccc34)nc2n1C(c1ccccc1)c1ccccc1 [Compound 43, 1-benzhydryl-6-(quinolin-5-yl)-1H-imidazo[4,5-b]pyrazin-2(3H)-one]
IC50 [1]: > 30 µM

SMILES: CC[C@@H](c1ccccc1)n1c(=O)[nH]c2ncc(-c3cccc4ncccc34)nc21 [Compound 44, (S)-1-(1-phenylpropyl)-6-(quinolin-5-yl)-1H-imidazo[4,5-b]pyrazin-2(3H)-one]
IC50 [1]: > 30 µM

SMILES: C[C@H](c1ccccc1)n1c(=O)n(C)c2ncc(-c3cccc4ncccc34)nc21 [Compound 48, (R)-1-methyl-3-(1-phenylethyl)-5-(quinolin-5-yl)-1H-imidazo[4,5-b]pyrazin-2(3H)-one]
IC50 [1]: > 30 µM

SMILES: C[C@@H](c1ccccc1)n1c(=O)n(C)c2ncc(-c3cccc4ncccc34)nc21 [Compound 49, (S)-1-methyl-3-(1-phenylethyl)-5-(quinolin-5-yl)-1H-imidazo[4,5-b]pyrazin-2(3H)-one]
IC50 [1]: > 30 µM

SMILES: C[C@H](c1ccccc1)n1c(=O)[nH]c2ncc(-c3cccc4ncccc34)cc21 [Compound 62, (R)-1-(1-phenylethyl)-6-(quinolin-5-yl)-1H-imidazo[4,5-b]pyridin-2(3H)-one]
IC50 [1]: > 30 µM

SMILES: CC(c1ccccc1)n1c(=O)[nH]c2ncc(-c3cccc4ncccc34)cc21 (stereo not shown) [Compound 63, 1-(1-phenylethyl)-6-(quinolin-5-yl)-1H-imidazo[4,5-b]pyridin-2(3H)-one]
IC50 [1]: > 30 µM

SMILES: CC(c1ccc(S(C)(=O)=O)cc1)n1c(=O)[nH]c2ncc(-c3cccc4ncccc34)nc21 (stereo not shown) [Compound 66, 1-(1-(4-(methylsulfonyl)phenyl)ethyl)-6-(quinolin-5-yl)-1H-imidazo[4,5-b]pyrazin-2(3H)-one]
IC50 [1]: > 30 µM

SMILES: O=c1[nH]c2ncc(-c3cccc4ncccc34)nc2n1CC1CCNCC1 [Compound 74, 1-(piperidin-4-ylmethyl)-6-(quinolin-5-yl)-1H-imidazo[4,5-b]pyrazin-2(3H)-one]
IC50 [1]: > 30 µM

SMILES: Cc1cc(-c2nc[nH]n2)ccc1-c1cnc2[nH]c(=O)n(CCC3CCOCC3)c2n1 [Compound 239, 6-(2-methyl-4-(1H-1,2,4-triazol-3-yl)phenyl)-1-(2-(tetrahydro-2H-pyran-4-yl)ethyl)-1H-imidazo[4,5-b]pyrazin-2(3H)-one]
melting point: 258 to 260 °C

SMILES: CC(C)(O)c1ccc(-c2cnc3[nH]c(=O)n(CC4CCCCC4)c3n2)cn1 [Compound 240, 1-(cyclohexylmethyl)-6-(6-(2-hydroxypropan-2-yl)pyridin-3-yl)-1H-imidazo[4,5-b]pyrazin-2(3H)-one]
melting point: > 250 °C

SMILES: C[C@H](c1ccccc1)n1c(=O)[nH]c2ncc(-c3ccc(-c4nc[nH]n4)cc3)nc21 [Compound 249, (R)-6-(4-(1H-1,2,4-triazol-3-yl)phenyl)-1-(1-phenylethyl)-1H-imidazo[4,5-b]pyrazin-2(3H)-one]
melting point: 258 to 260 °C

Second part, the compound after the results:

IC50 [1]: > 30 µM
SMILES: C[C@H](c1ccccc1)n1c(=O)[nH]c2ncc(-c3cccc4ccccc34)nc21 [Compound 3, (R)-6-(naphthalen-1-yl)-1-(1-phenylethyl)-1H-imidazo[4,5-b]pyrazin-2(3H)-one]

IC50 [1]: > 30 µM
SMILES: C[C@@H](c1ccccc1)n1c(=O)[nH]c2ncc(-c3cccc4ccccc34)nc21 [Compound 7, (S)-6-(naphthalen-1-yl)-1-(1-phenylethyl)-1H-imidazo[4,5-b]pyrazin-2(3H)-one]

IC50 [1]: > 30 µM
SMILES: CC(C)[C@H](CO)n1c(=O)[nH]c2ncc(-c3ccccc3)nc21 [Compound 9, (R)-1-(1-hydroxy-3-methylbutan-2-yl)-6-phenyl-1H-imidazo[4,5-b]pyrazin-2(3H)-one]

IC50 [1]: > 30 µM
SMILES: CC(C)[C@H](CO)n1c(=O)[nH]c2ncc(-c3cccc4ncccc34)nc21 [Compound 12, (R)-1-(1-hydroxy-3-methylbutan-2-yl)-6-(quinolin-5-yl)-1H-imidazo[4,5-b]pyrazin-2(3H)-one]

IC50 [1]: > 30 µM
SMILES: C[C@H](c1ccccc1)n1c(=O)[nH]c2nccnc21 [Compound 16, (R)-1-(1-phenylethyl)-1H-imidazo[4,5-b]pyrazin-2(3H)-one]

IC50 [1]: > 30 µM
SMILES: C[C@@H](c1ccccc1)n1c(=O)[nH]c2nccnc21 [Compound 17, (S)-1-(1-phenylethyl)-1H-imidazo[4,5-b]pyrazin-2(3H)-one]

IC50 [1]: 5.1 to 10 µM
SMILES: COc1ccc(C(C)C)cc1-c1cnc2[nH]c(=O)n(C(C)C)c2n1 [Compound 18, 1-isopropyl-6-(5-isopropyl-2-methoxyphenyl)-1H-imidazo[4,5-b]pyrazin-2(3H)-one]

IC50 [1]: > 30 µM
SMILES: COc1ccc(C(C)C)cc1-c1cnc2[nH]c(=O)n(C3CCCCC3)c2n1 [Compound 19, 1-cyclohexyl-6-(5-isopropyl-2-methoxyphenyl)-1H-imidazo[4,5-b]pyrazin-2(3H)-one]

IC50 [1]: > 30 µM
SMILES: O=c1[nH]c2ncc(-c3cccc4ncccc34)nc2[nH]1 [Compound 20, 5-(quinolin-5-yl)-1H-imidazo[4,5-b]pyrazin-2(3H)-one]

IC50 [1]: > 30 µM
SMILES: COc1ccc(C(C)C)cc1-c1cnc2[nH]c(=O)n(CC(C)C)c2n1 [Compound 21, 1-isobutyl-6-(5-isopropyl-2-methoxyphenyl)-1H-imidazo[4,5-b]pyrazin-2(3H)-one]

IC50 [1]: > 30 µM
SMILES: COc1ccc(C(C)C)cc1-c1cnc2[nH]c(=O)n(CCO)c2n1 [Compound 22, 1-(2-hydroxyethyl)-6-(5-isopropyl-2-methoxyphenyl)-1H-imidazo[4,5-b]pyrazin-2(3H)-one]

IC50 [1]: > 30 µM
SMILES: COc1ccc(C(C)C)cc1-c1cnc2[nH]c(=O)n(C3CCOCC3)c2n1 [Compound 23, 6-(5-isopropyl-2-methoxyphenyl)-1-(tetrahydro-2H-pyran-4-yl)-1H-imidazo[4,5-b]pyrazin-2(3H)-one]

IC50 [1]: 10.1 to 20 µM
SMILES: COc1ccc(C(C)C)cc1-c1cnc2[nH]c(=O)n([C@@H]3CCOC3)c2n1 [Compound 32, (R)-6-(5-isopropyl-2-methoxyphenyl)-1-(tetrahydrofuran-3-yl)-1H-imidazo[4,5-b]pyrazin-2(3H)-one]

IC50 [1]: 0.1 to 5 µM
SMILES: CC(c1ccccc1)n1c(=O)[nH]c2ncc(-c3cccc4ncccc34)nc21 (stereo not shown) [Compound 42, 1-(1-phenylethyl)-6-(quinolin-5-yl)-1H-imidazo[4,5-b]pyrazin-2(3H)-one]

IC50 [1]: 10.1 to 20 µM
SMILES: COc1ccc(C(C)C)cc1-c1cnc2[nH]c(=O)n(C3CCCOC3)c2n1 (stereo not shown) [Compound 46, 6-(5-isopropyl-2-methoxyphenyl)-1-(tetrahydro-2H-pyran-3-yl)-1H-imidazo[4,5-b]pyrazin-2(3H)-one]

IC50 [1]: 20.1 to 30 µM
SMILES: CC(c1ccncc1)n1c(=O)[nH]c2ncc(-c3cccc4ncccc34)nc21 (stereo not shown) [Compound 67, 1-(1-(pyridin-4-yl)ethyl)-6-(quinolin-5-yl)-1H-imidazo[4,5-b]pyrazin-2(3H)-one]

IC50 [1]: 10.1 to 20 µM
SMILES: CC(c1ccccn1)n1c(=O)[nH]c2ncc(-c3cccc4ncccc34)nc21 (stereo not shown) [Compound 75, 1-(1-(pyridin-2-yl)ethyl)-6-(quinolin-5-yl)-1H-imidazo[4,5-b]pyrazin-2(3H)-one]
